Results from US5438057A, “Pharmaceutical compositions” (priority 1991, dated 1995).

What was measured:
[1] = test system: acute daunorubicin toxicity; settings: Herman et al, Res. Commun. Chem. Pathol. Pharmacol., 1985, 48, 39; cited from earlier work
[2] = test system: doxorubicin-induced cardiotoxicity; assay: Protective activity against doxorubicin-induced cardiotoxicity: cardiac output, heart rate, survival, congestive heart failure at 8 weeks; type: in vivo, Sprague Dawley rats; settings: for Survival: survivors/animals; for Incidence of CHF (congestive heart failure): over 8 weeks
Method: (§1) Mature male Sprague Dawley rats, 13-14 weeks old, weighing 400-500 gm were used. The animals were caged in groups of three and were kept in a constant environment. They were fed 41-B cubed diet and water ad libitum. The animal house was maintained in an alternating 12-hour wake-sleep cycle.
(§2) The cardioprotective activity of (±) trans-1,2-bis(3,5-dioxopiperazin-1-yl)cyclobutane (hereinafter referred to as the compound) was studied in the rats. […] The suspension was prepared shortly before use and was administered at a constant injection volume of 1 ml per 100 gm body weight. Doxorubicin hydrochloride (hereafter referred to as doxorubicin) (Farmitalia, Milan, Italy) was dissolved in sterile water (2 mg/ml) before injection.
(§3) A group of 6 animals received a combined treatment of the compound and doxorubicin. The compound was administered to animals as a single intraperitoneal (i.p.) injection into the lower right quadrant of the abdomen to avoid damage to vital organs. An hour after the administration of the compound, the animals received a single intravenous (i.v.) injection of doxorubicin (4 mg/kg), via the femoral vein. A group of 10 animals received an i.p. injection of saline (1 ml/100 gm) followed by an i.v. injection of saline (0.2 ml/100 gm) one hour later. These rats acted as control animals. Nine animals received an i.p. injection of saline one hour before an i.v. administration of doxorubicin (4 mg/kg). To minimise the effects of circadian timing, doxorubicin administration was carried out between 13.30 hours and 15.30 hours. During intravenous drug administration and for subsequent cardiac output measurements, animals were anaesthetised with choral hydrate (300 mg/kg).
The protective activity of the compound against doxorubicin-induced cardiotoxicity in the rats was assessed at 8 weeks by measuring the cardiac output in animals receiving the treatment using an external counting technique wherein a radioactive tracer, technetium (^99m TcO4), was injected as a bolus into the femoral vein of an anaesthetised animal. The activity time curve over the heart was recorded at 0.1 second intervals for 40 seconds, using an NaI detector connected to a multi-channel analyzer (ND-62, Nuclear Data). ECG and heart rate were determined concomitantly with the cardiac output measurement, using a human ECG monitor (Hewlett Packard 7830A) coupled to a scope memory (model VK-12-2, Seltek Instrument Ltd.) and a chart recorder.
Gross post mortem examinations were carried out on the animals that died during the study as well as those killed at the end of experiment (8 weeks).
(§4) In this study, statistical differences between group means were analysed using Student's t-test.

[3] = Solubility in saline / aqueous media; type: physicochemical; settings: administered as suspension in 0.5% CMC
[4] = test system: daunorubicin toxicity; doxorubicin toxicity; settings: Herman et al, Adv. Pharmacol. Chemother., 1982, 19, 249; cited from earlier work
[5] = Body weight (general acute toxicity) after i.p. pretreatment and doxorubicin; type: in vivo, Sprague Dawley rats
Method: as §1, §2, §3
The animals were weighed daily for up to three weeks after receiving treatment. The maximum reduction in body weight over this period was used as an index for the assessment of general acute toxicity. Animals were also weighed at 4 and 8 weeks to assess the general toxicity of the drug.
as §4

[6] = compound 100 mg/kg i.p. + doxorubicin 4 mg/kg i.v. after 1 hour, 8 weeks
[7] = compound 150 mg/kg i.p. + doxorubicin 4 mg/kg i.v. after 1 hour, 8 weeks
[8] = compound 200 mg/kg i.p. + doxorubicin 4 mg/kg i.v. after 1 hour, 8 weeks
[9] = compound 100, 150 or 200 mg/kg i.p. + doxorubicin 4 mg/kg
[10] = saline + doxorubicin 4 mg/kg, 8 weeks
[11] = saline i.p. + doxorubicin 4 mg/kg i.v. after 1 hour, 8 weeks
[12] = saline i.p. + doxorubicin 4 mg/kg i.v. after 1 hour

O=C1CN(CCCN2CC(=O)NC(=O)C2)CC(=O)N1
protective effect against acute daunorubicin toxicity [1]: either no protective activity or only minimal protective activity

O=C1CN([C@@H]2CC[C@H]2N2CC(=O)NC(=O)C2)CC(=O)N1 (racemic) [Compound, (±) trans-1,2-bis(3,5-dioxopiperazin-1-yl)cyclobutane]
change in heart rate ([2]; animals pretreated with the compound + doxorubicin 4 mg/kg): no change in heart rate | RCO: mean relative cardiac output (treated / age-matched control) [2, 6]: 0.80 ± 0.05 | RHR: mean relative heart rate (treated / age-matched control) [2, 6]: 1.04 ± 0.03 | Survival [2, 6]: 6/6 | Incidence of CHF (congestive heart failure) ([2]; compound 100 mg/kg i.p. + doxorubicin 4 mg/kg i.v. after 1 hour): 0/6 | RCO: mean relative cardiac output (treated / age-matched control) [2, 7]: 0.86 ± 0.06 | RHR: mean relative heart rate (treated / age-matched control) [2, 7]: 1.00 ± 0.04 | Survival [2, 7]: 6/6 | Incidence of CHF (congestive heart failure) ([2]; compound 150 mg/kg i.p. + doxorubicin 4 mg/kg i.v. after 1 hour): 0/6 | RCO: mean relative cardiac output (treated / age-matched control) [2, 8]: 0.84 ± 0.05 | RHR: mean relative heart rate (treated / age-matched control) [2, 8]: 1.05 ± 0.03 | Survival [2, 8]: 6/6 | Incidence of CHF (congestive heart failure) ([2]; compound 200 mg/kg i.p. + doxorubicin 4 mg/kg i.v. after 1 hour): 0/6 | activity against doxorubicin-induced cardiotoxicity [2, 9]: significant activity against doxorubicin-induced cardiotoxicity | survival (in words) [2, 9]: survived the course of study of 8 weeks | signs of congestive failure ([2]; compound 100, 150 or 200 mg/kg i.p. + doxorubicin 4 mg/kg, 8 weeks): without showing any signs of congestive failure | impairment in cardiac output compared to saline and doxorubicin ([2]; compound 100, 150 or 200 mg/kg i.p. + doxorubicin 4 mg/kg, p<0.001): significantly less impairment in cardiac output | dose dependence of the protective activity ([2]; dose range 100-200 mg/kg i.p. + doxorubicin 4 mg/kg): no indication of dose dependent changes in the protective activity | solubility in saline [3]: inadequately soluble in saline

CC(CN1CC(=O)NC(=O)C1)N1CC(=O)NC(=O)C1 (racemic) [ICRF 159]
effectiveness in reducing high dose daunorubicin toxicity relative to doxorubicin toxicity [4]: consistently more effective in reducing high dose daunorubicin toxicity than doxorubicin toxicity

CCC(CN1CC(=O)NC(=O)C1)N1CC(=O)NC(=O)C1 (racemic) [R=C2 H5 and R'=R"=H (dl)]
protective effect against acute daunorubicin toxicity [1]: either no protective activity or only minimal protective activity

CC(CN1CC(=O)NC(=O)C1)N1CC(=O)NC(=O)C1 (racemic) [the compound having R=CH3 and R'=R"=H (as the dl, d or l isomer)]
protective effect against acute daunorubicin toxicity [1]: give protection against the lethal effects of daunorubicin

CC[C@H]([C@H](C)N1CC(=O)NC(=O)C1)N1CC(=O)NC(=O)C1 (relative stereo) [R: CH3, R'=C2 H5 and R"=H (dl-erythro)]
protective effect against acute daunorubicin toxicity [1]: either no protective activity or only minimal protective activity

O=C1CN(C2CCC2N2CC(=O)NC(=O)C2)CC(=O)N1 (stereo not drawn) [R+R'=--CH2 --CH2 -- and R"=H]
protective effect against acute daunorubicin toxicity [1]: either no protective activity or only minimal protective activity

CC(CN1CC(=O)N(C)C(=O)C1)N1CC(=O)N(C)C(=O)C1 (stereo not drawn) [R=R"=CH3and R'=H (l)]
protective effect against acute daunorubicin toxicity [1]: either no protective activity or only minimal protective activity

C[C@H]([C@H](C)N1CC(=O)NC(=O)C1)N1CC(=O)NC(=O)C1 [R=R'=CH3 and R"=H (meso)]
protective effect against acute daunorubicin toxicity [1]: either no protective activity or only minimal protective activity

CN1C(=O)CN(CCN2CC(=O)N(C)C(=O)C2)CC1=O [R=R'=H and R"=CH3]
protective effect against acute daunorubicin toxicity [1]: either no protective activity or only minimal protective activity

O=C1CN(CCN2CC(=O)NC(=O)C2)CC(=O)N1 [R=R'=R"=H]
protective effect against acute daunorubicin toxicity [1]: either no protective activity or only minimal protective activity

O=C1CN(CCN2CC(=O)N(CN3CCOCC3)C(=O)C2)CC(=O)N1CN1CCOCC1 [bimolane]
protective effect against acute daunorubicin toxicity [1]: give protection against the lethal effects of daunorubicin

COc1cccc2c1C(=O)c1c(O)c3c(c(O)c1C2=O)C[C@@](O)(C(=O)CO)C[C@@H]3O[C@H]1C[C@H](N)[C@H](O)[C@H](C)O1 [doxorubicin]
reduction in cardiac output [2, 10]: 60% | reduction in heart rate [2, 10]: 35% | death during study ([2]; saline + doxorubicin 4 mg/kg, 9 animals): one animal died just before 8 weeks | RCO: mean relative cardiac output (treated / age-matched control) [2, 11]: 0.41 ± 0.04 | RHR: mean relative heart rate (treated / age-matched control) [2, 11]: 0.65 ± 0.19 | Survival [2, 11]: 8/9 | Incidence of CHF (congestive heart failure) [2, 12]: 0/8 | reduction in body weight in the first three weeks after treatment ([5]; doxorubicin 4 mg/kg i.v., pretreated with saline i.p.): > 10% | W2: mean body weight at 4 weeks after treatment [5, 12]: 381 ± 8 | W3: mean body weight at 8 weeks after treatment [5, 12]: 324 ± 27 | ΔW(%): maximum reduction in body weight in the first 3 weeks after treatment [5, 12]: 11.6 ± 0.7% | W1: mean body weight of animals at the time of injection ([5]; saline i.p. + doxorubicin 4 mg/kg i.v. after 1 hour, baseline): 447 ± 11
